# Laboratory results taken from patent EP4603105A1, “PHARMACEUTICAL COMPOSITION CONTAINING CYCLIC COMPOUND HAVING SELECTIVE KRAS INHIBITORY EFFECT AGAINST HRAS AND NRAS” (CHUGAI SEIYAKU KABUSHIKI KAISHA, priority 2022, dated 2024).
# Assays:
# [1] = system: human lung cancer strain NCI-H441; assay type: cell-based
# Outline: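 Signal came from […] measured per well once the reagent was added. Beforehand, cells were cultured at 37°C and 5% carbon dioxide on a compound series serially diluted in dimethyl sulfoxide.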
# [2] = biological target: GDP-bound NRAS wild-type protein (Homo sapiens, UniProt P01111); assay: Binding to NRAS by surface plasmon resonance (SPR), KD and KD ratio to KRAS
# Outline: (§1)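 Recombinant RAS proteins bearing a biotinylated Avi tag and loaded with GDP served as the captured ligand, recaptured fresh every cycle. Binding responses were referenced to an uncoated surface and a buffer-only blank cycle. Dissociation constants were obtained by 1:1 model fitting at 30°C.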
# [3] = biological target: HRAS wild-type protein (Homo sapiens, UniProt P01112); assay: Binding to HRAS by surface plasmon resonance (SPR), KD and KD ratio to KRAS
# Outline: as §1
# [4] = ratio of KD for GDP-bound NRAS wild-type protein to KD for KRAS
# [5] = ratio of KD for HRAS wild-type protein to KD for KRAS
# [6] = ratio of KD value for GDP-bound NRAS wild-type protein to KD value for KRAS (SPR)
# [7] = ratio of KD value for HRAS wild-type protein to KD value for KRAS (SPR)
# [8] = ratio of the KD value with respect to GDP-bound NRAS wild-type protein to the KD value with respect to KRAS
# [9] = ratio of the KD value with respect to HRAS wild-type protein to the KD value with respect to KRAS
# HRAS wild-type protein, sequence (P01112 whole entry): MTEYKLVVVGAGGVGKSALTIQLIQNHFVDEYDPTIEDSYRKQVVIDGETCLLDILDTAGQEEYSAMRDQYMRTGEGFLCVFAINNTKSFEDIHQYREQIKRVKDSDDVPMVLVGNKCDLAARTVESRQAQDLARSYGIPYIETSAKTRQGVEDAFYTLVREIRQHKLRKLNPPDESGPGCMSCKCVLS
# GDP-bound NRAS wild-type protein, sequence (P01111 whole entry): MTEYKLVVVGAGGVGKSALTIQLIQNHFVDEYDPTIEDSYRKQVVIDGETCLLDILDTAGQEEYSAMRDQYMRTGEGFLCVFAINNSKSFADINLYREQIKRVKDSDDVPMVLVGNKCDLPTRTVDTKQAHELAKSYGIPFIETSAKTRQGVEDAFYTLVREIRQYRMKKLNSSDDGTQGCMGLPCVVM
IC50 [1],Structure (SMILES),"NRAS /KRAS [2, 4]","HRAS /KRAS [3, 5]","NRAS /KRAS [2, 6]","HRAS /KRAS [3, 7]","NRAS /KRAS [2, 8]","HRAS /KRAS [3, 9]"
14.2 nM,CCC[C@H]1C(=O)N[C@@H]([C@@H](C)CC)C(=O)N(C)CC(=O)N(C)[C@H]2C/C=C\CCN(C2=O)[C@@H](Cc2ccc(C(F)(F)F)cc2)C(=O)N(C)CC(=O)N[C@@H](CCc2cc(Cl)c3sccc3c2)C(=O)N2C[C@H](OCC)C[C@H]2C(=O)NC2(CC(C)(C)C2)C(=O)N(C)[C@@H](C(CC)CC)C(=O)N(C)[C@H](C(=O)N(C)C)CC(=O)N1C [PP2888],AA (a compound having 20 or more is denoted as AA),A (a compound having 10 or more and less than 20 is denoted as A),–,–,–,–
3.3 nM,CCO[C@@H]1C[C@H]2C(=O)NC3(CC(C)(C)C3)C(=O)N(C)[C@@H](C3CCCC3)C(=O)N(C)[C@H](C(=O)N(C)C)CC(=O)N(C)[C@@H](CC3CC3)C(=O)N[C@@H]([C@@H](C)CC)C(=O)N(C)CC(=O)N(C)[C@H]3C/C=C\CCN(C3=O)[C@@H](Cc3ccc(C(F)(F)F)cc3)C(=O)N(C)CC(=O)N[C@@H](CCc3ccc(C(F)(F)F)c(Cl)c3)C(=O)N2C1 [PP1749],–,–,A (a compound having 10 or more and less than 20 is denoted as A),A (a compound having 10 or more and less than 20 is denoted as A),–,–
6.7 nM,CCCN(C)C(=O)[C@@H]1CC(=O)N(C)[C@@H](CC)C(=O)N[C@@H]([C@@H](C)CC)C(=O)N(C)CC(=O)N(C)[C@H]2C/C=C\CCN(C2=O)[C@@H](Cc2ccc(C(F)(F)F)cc2)C(=O)N(C)CC(=O)N[C@@H](CCc2cc(F)c(C(F)(F)F)c(F)c2)C(=O)N2C[C@H](OCC)C[C@H]2C(=O)NC2(CC(C)(C)C2)C(=O)N(C)[C@@H](C2CCCC2)C(=O)N1C [PP1670],–,–,A (a compound having 10 or more and less than 20 is denoted as A),A (a compound having 10 or more and less than 20 is denoted as A),–,–
2.7 nM,CCO[C@@H]1C[C@H]2C(=O)NC3(CC(C)(C)C3)C(=O)N(C)[C@@H](C3CCCC3)C(=O)N(C)[C@H](C(=O)N(C)C)CC(=O)N(C)[C@@H](CC(F)(F)F)C(=O)N[C@@H]([C@@H](C)CC)C(=O)N(C)CC(=O)N(C)[C@H]3C/C=C\CCN(C3=O)[C@@H](Cc3ccc(C(F)(F)F)cc3)C(=O)N(C)CC(=O)N[C@@H](CCc3cc(F)c(C(F)(F)F)c(F)c3)C(=O)N2C1 [PP1644],–,–,A (a compound having 10 or more and less than 20 is denoted as A),A (a compound having 10 or more and less than 20 is denoted as A),–,–
13.4 nM,CCCN(C)C(=O)[C@@H]1CC(=O)N(C)[C@@H](CCOC)C(=O)N[C@@H]([C@@H](C)CC)C(=O)N(C)CC(=O)N(C)[C@H]2C/C=C\CCN(C2=O)[C@@H](Cc2ccc(C(F)(F)F)cc2)C(=O)N(C)CC(=O)N[C@@H](CCc2ccc(C(F)(F)F)c(OC)c2)C(=O)N2C[C@H](OCC)C[C@H]2C(=O)NC2(CC(C)(C)C2)C(=O)N(C)[C@@H](C2CCCC2)C(=O)N1C [PP1975],–,–,–,–,A (a compound having 10 or more and less than 20 is denoted as A),A (a compound having 10 or more and less than 20 is denoted as A)
3.4 nM,CCO[C@@H]1C[C@H]2C(=O)NC3(CC(C)(C)C3)C(=O)N(C)[C@@H](C3CCCC3)C(=O)N(C)[C@H](C(=O)N3CCCC3)CC(=O)N(C)[C@H]3CCCCCc4ccc(cc4)C[C@@H](C(=O)N(C)CC(=O)N[C@@H](CCc4ccc(C(F)(F)F)c(OC)c4)C(=O)N2C1)N1CC/C=C\C[C@@H](C1=O)N(C)C(=O)CN(C)C(=O)[C@H]([C@@H](C)CC)NC3=O [PP3037],A (a compound having 10 or more and less than 20 is denoted as A),B (a compound having 3 or more and less than 10 is denoted as B),–,–,–,–
24.7 nM,CCO[C@@H]1C[C@H]2C(=O)NC3(CC(C)(C)C3)C(=O)N(C)[C@@H](C(CC)CC)C(=O)N(C)[C@H](C(=O)N(C)C)CC(=O)N(C)[C@@H](C(C)C)C(=O)N[C@@H]([C@@H](C)CC)C(=O)N(C)CC(=O)N(C)[C@H]3C/C=C\CCN(C3=O)[C@@H](Cc3ccc(C(F)(F)F)cc3)C(=O)N(C)CC(=O)N[C@@H](CCc3ccc(C(F)(F)F)c(Cl)c3)C(=O)N2C1 [PP2140],–,–,–,–,AA (a compound having 20 or more is denoted as AA),A (a compound having 10 or more and less than 20 is denoted as A)
